A short description of data set [1]: precipitation on direct i.v. infusion followed by normal saline flush. The format is physicochemical. The settings on record: 0.77 mg/mL in 40% propylene glycol, 10% ethanol, 50% normal saline; direct i.v. infusion into the vein followed by normal saline flush. As to the method:
Preferably the infusion solution of the present invention is prepared by mixing the infusion concentrate with a diluent, such as 16.3% W/v ethanol in saline in a suitable container. A preferred formulation comprises 1 mL of 2 mg/mL infusion concentrate diluted with 1.6 mL of 16.3% w/v ethanol in saline to yield an infusion solution containing 0.77 mg/mL discodermolide in 40% propylene glycol, 10% ethanol and 50% normal saline. This solution is administered via iv infusion, or push into Y tubing containing a 0.9% normal saline drip, directly into the vein and the drug solution residue in the tubing will be flushed with normal saline. The volume of discodermolide solution given via i.v. push will vary from 0.3 mL (at the starting does of 0.2 mg or 0.13 mg/m^2) to 26 mL (for a dose of 20 mg or 11.43 mg/m^2) or 43 mL (for a dose of 33 mg or 19.2 mg/m^2).

Data set [2] can be described thus: stability of discodermolide infusion solution. The class given is physicochemical. The settings on record: infusion concentrate mixed with diluent; infusion solution 0.1-2.0 mg/mL, 0.1-1.5 mg/mL, 0.5-8.0 mg/mL or 0.77 mg/mL. As to the method: The amount of diluent used in admixture with the infusion concentrate to form an infusion solution may be chosen so as to obtain a desired concentration of discodermolide in the infusion solution. The amount of diluent used is also chosen so that the solution is stable long enough to be administered. Concentration of infusion solutions are 0.1-2.0 mg/mL, or 0.1-1.5 mg/mL or preferably 0.5-8.0 mg/mL or 0.77 mg/mL. Such solutions are found to be stable for up to 8 hours.

As to `C=C/C=C\[C@H](C)[C@H](OC(N)=O)[C@@H](C)[C@H](O)[C@@H](C)C/C(C)=C\[C@H](C)[C@@H](O)[C@@H](C)/C=C\[C@@H](O)C[C@@H]1OC(=O)[C@H](C)[C@@H](O)[C@H]1C` [discodermolide], in data set [1], the precipitation of discodermolide entry is reported as “will not cause any precipitation”. Moreover, the “stability of infusion solution (time stable)” value in data set [2] is recorded as “up to 8 hours”.
